IC50 data for 19 compounds are collected here from patent US20190284136A1, “INDOLINE DERIVATIVES” (ViiV HEALTHCARE UK LIMITED, priority 2016, published 2019).

The assay relates to HIV. Nature of the assay: Table 1 IC50 of the examples (assay method not given; patent concerns inhibiting HIV replication). The class given is cell-based. As to conditions: Human immunodeficiency virus 1.
Broadly, the IC50 is the concentration that inhibits the measured activity by half. A lower IC50 goes with inhibition by little substance. For the compound `Cc1ccc(-c2c3c(cc(C)c2[C@H](OC(C)(C)C)C(=O)O)N(C(=O)C2CCCCC2)CC3)cc1` [Example 41, (S)-2-(tert-Butoxy)-2-(1-(cyclohexanecarbonyl)-6-methyl-4-(p-tolyl)indolin-5-yl)acetic acid], the half-maximal inhibitory concentration (IC50) is 17 nM. `Cc1ccc(-c2c3c(cc(C)c2[C@H](OC(C)(C)C)C(=O)O)N(C(=O)c2ccc(F)c(F)c2)CC3)cc1` [Example 42, (S)-2-(tert-Butoxy)-2-(1-(3,4-difluorobenzoyl)-6-methyl-4-(p-tolyl)indolin-5-yl)acetic acid] returned an IC50 of 5 nM. Compound `Cc1ccc(-c2c3c(cc(C)c2[C@H](OC(C)(C)C)C(=O)O)N(C(=O)c2cccc(F)c2F)CC3)cc1` [Example 43, (S)-2-(tert-Butoxy)-2-(1-(2,3-difluorobenzoyl)-6-methyl-4-(p-tolyl)indolin-5-yl)acetic acid] had an IC50 of 10 nM. On to `Cc1ccc(-c2c3c(cc(C)c2[C@H](OC(C)(C)C)C(=O)O)N(C(=O)c2ccc(F)cc2C)CC3)cc1` [Example 44, (S)-2-(tert-Butoxy)-2-(1-(4-fluoro-2-methylbenzoyl)-6-methyl-4-(p-tolyl)indolin-5-yl)acetic acid], for which half-maximal inhibition (IC50) was put at 6 nM. `COc1cc(C(=O)N2CCc3c2cc(C)c([C@H](OC(C)(C)C)C(=O)O)c3-c2cc(F)c3c(c2C)CCCO3)ccc1C` [Example 71, (S)-2-(tert-Butoxy)-2-((R)-4-(8-fluoro-5-methylchroman-6-yl)-1-(3-methoxy-4-methylbenzoyl)-6-methylindolin-5-yl)acetic acid]: the concentration for half-maximal inhibition (IC50) came to 4 nM. In turn, `Cc1cc2c(c(-c3cc(F)c4c(c3C)CCCO4)c1[C@H](OC(C)(C)C)C(=O)O)CCN2C(=O)C1CCCc2ccccc21` (stereo partly drawn) [Example 105, (2S)-2-(tert-Butoxy)-2-((4R)-4-(8-fluoro-5-methylchroman-6-yl)-6-methyl-1-(1,2,3,4-tetrahydronaphthalene-1-carbonyl)indolin-5-yl)acetic acid] displayed an IC50 of 21 nM. This IC50 lies about 5.2-fold higher than the previous one. Compound `Cc1cc2c(c(-c3cc(F)c4c(c3C)CCCO4)c1[C@H](OC(C)(C)C)C(=O)O)CCN2C(=O)C1CCOC1` (stereo partly drawn) [Example 134, (2S)-2-(tert-Butoxy)-2-((4R)-4-(8-fluoro-5-methylchroman-6-yl)-6-methyl-1-(tetrahydrofuran-3-carbonyl)indolin-5-yl)acetic acid] yielded a half-maximal inhibitory concentration (IC50) of 453 nM. Against the preceding compound, the IC50 is about 22-fold higher. In the case of `Cc1cc2c(c(-c3cc(F)c4c(c3C)CCCO4)c1[C@H](OC(C)(C)C)C(=O)O)CCN2C(=O)c1cc(F)cc(C(F)(F)F)c1` [Example 143, (S)-2-(tert-Butoxy)-2-((R)-1-(3-fluoro-5-(trifluoromethyl)benzoyl)-4-(8-fluoro-5-methylchroman-6-yl)-6-methylindolin-5-yl)acetic acid], the half-maximal inhibitory concentration (IC50) came out at 14 nM. Compound `COc1cncc(C(=O)N2CCc3c2cc(C)c([C@H](OC(C)(C)C)C(=O)O)c3-c2cc(F)c3c(c2C)CCCO3)c1` [Example 151, (2S)-2-(tert-Butoxy)-2-(4-(8-fluoro-5-methylchroman-6-yl)-1-(5-methoxynicotinoyl)-6-methylindolin-5-yl)acetic acid] registered a 50% inhibitory concentration (IC50) of 17 nM. Consider `COc1cc(F)cc(C(=O)N2CCc3c2cc(C)c([C@H](OC(C)(C)C)C(=O)O)c3-c2cc(F)c3c(c2C)CCCO3)c1` [Example 158, (S)-2-(tert-Butoxy)-2-((R)-1-(3-fluoro-5-methoxybenzoyl)-4-(8-fluoro-5-methylchroman-6-yl)-6-methylindolin-5-yl) acetic acid], for which the IC50 came out at 3 nM.

As to `COc1ccc(C(=O)n2ccc3c(-c4cc(F)c5c(c4C)CCCO5)c([C@H](OC(C)(C)C)C(=O)O)c(C)cc32)cc1C` [Example 202, (S)-2-(tert-Butoxy)-2-((R)-4-(8-Fluoro-5-methylchroman-6-yl)-1-(4-methoxy-3-methylbenzoyl)-6-methyl-1H-indol-5-yl)acetic acid], the IC50 was determined as 93 nM. `Cc1ccc(-c2c3c(cc(C)c2C(OC(C)(C)C)C(=O)O)N(CC(=O)c2ccccc2)CCC3)cc1` (stereo not shown) [Example 207, 2-(tert-Butoxy)-2-(7-methyl-1-(2-oxo-2-phenylethyl)-5-(p-tolyl)-1,2,3,4-tetrahydroquinolin-6-yl)acetic acid] had an IC50 of 3500 nM. The compound `Cc1ccc(-c2c3c(cc(C)c2C(OC(C)(C)C)C(=O)O)N(C(=O)OCc2ccccc2)CCC3)cc1` (stereo not shown) [Example 208, 2-(1-((Benzyloxy)carbonyl)-7-methyl-5-(p-tolyl)-1,2,3,4-tetrahydroquinolin-6-yl)-2-(tert-butoxy)acetic acid] registered an IC50 of 1120 nM. In the case of `COC(=O)c1cccc(CN2CCCc3c2cc(C)c(C(OC(C)(C)C)C(=O)O)c3-c2ccc(C)cc2)c1` (stereo not shown) [Example 209, 2-(tert-Butoxy)-2-(1-(3-(methoxycarbonyl)benzyl)-7-methyl-5-(p-tolyl)-1,2,3,4-tetrahydroquinolin-6-yl)acetic acid], the IC50 is 1340 nM.

For the compound `CCCNC(=O)N1CCCc2c1cc(C)c(C(OC(C)(C)C)C(=O)O)c2-c1ccc(C)cc1` (stereo not shown) [Example 210, 2-(tert-Butoxy)-2-(7-methyl-1-(propylcarbamoyl)-5-(p-tolyl)-1,2,3,4-tetrahydroquinolin-6-yl)acetic acid], inhibition was half-maximal at 4290 nM (IC50). `Cc1ccc(-c2c3c(cc(C)c2C(OC(C)(C)C)C(=O)O)N(c2ccccc2)CCC3)cc1` (stereo not shown) [Example 211, 2-(tert-Butoxy)-2-(7-methyl-1-phenyl-5-(p-tolyl)-1,2,3,4-tetrahydroquinolin-6-yl)acetic acid]: the half-inhibitory concentration (IC50) is 10400 nM. Under `Cc1ccc(-c2c3c(cc(C)c2C(OC(C)(C)C)C(=O)O)N(Cc2ccc(F)c(F)c2)CCC3)cc1` (stereo not shown) [Example 212, 2-(tert-Butoxy)-2-(1-(3,4-difluorobenzyl)-7-methyl-5-(p-tolyl)-1,2,3,4-tetrahydroquinolin-6-yl)acetic acid] stands 1030 nM; under `Cc1ccc(-c2c3c(cc(C)c2C(OC(C)(C)C)C(=O)O)N(S(=O)(=O)N2CCCCC2)CCC3)cc1` (stereo not shown) [Example 213, 2-(tert-Butoxy)-2-(7-methyl-1-(piperidin-1-ylsulfonyl)-5-(p-tolyl)-1,2,3,4-tetrahydroquinolin-6-yl)acetic acid], 3410 nM.

Regarding `Cc1ccc(-c2c3c(cc(C)c2C(OC(C)(C)C)C(=O)O)N(C(=O)c2cccc(F)c2)CCC3)cc1` (stereo not shown) [Example 214, 2-(tert-Butoxy)-2-(1-(3-fluorobenzoyl)-7-methyl-5-(p-tolyl)-1,2,3,4-tetrahydroquinolin-6-yl)acetic acid], the IC50 was determined as 3560 nM. The IC50 values of the last two compounds are within 1.5-fold of each other.
